Results on four compounds are retold here after patent publication US4352819A (priority 1980, dated 1982).

Where two headings read alike, the source gives them in different places.

Test [1] deals with ventricular fibrillation induced by chloroform. Description: Chloroform test (antiarrhythmic). The following applies: iv, read-out: ED50, Chloroform, mouse (dose which protects 50% of the mice against ventricular fibrillation induced by chloroform). It is filed as in vivo. The method, then:
Five minutes after i.v. injection of the compound under study the mice are placed into a 300 ml beaker containing cotton wool soaked with 20 ml of chloroform. The animals are watched carefully and taken out of the beaker as soon as the second respiratory arrest occured. The heart is then quickly exposed to visual inspection of ventricular rhythm (see Lawson, Loc.cit.).

Test [2] relates to aconitine-induced arrhythmias. Description: Aconitine test (antiarrhythmic). Type of test: in vivo, rat. The following applies: for ED50: Rattus norvegicus, read-out: ED50, Aconitine, rat. From the text: (§1) These compounds were first selected owing to their activity in different experimental arrhythmia models which are used as screening techniques. So the chloroform, aconitine and calcium chloride tests have been used for testing the compounds of the invention as described by J. W. Lawson, J.Pharmacol.exp.Ther. 160, 22-81 (1968) "Antiarrhythmic activity of some isoquinoline derivatives determined by a rapid screening procedure in the mouse".
It seems that investigators favour the rat so as to study the protective effect of a compound on arrhythmia induced by aconitine (see: J. L. Junien et al., Arzneim.Forsch. 24, 1743-1747 (1974); L. Szekeres et al., Experimental cardiac arrhythmias and antiarrhythmic drugs, Publishing House of the Hungarian Academy of Sciences (Akademia Kiado), Budapest (1971); M. R. Malinow et al., Arch.int.Pharmacodyn. 102, 55-64 (1955); C. Bianchi et al., Arzneim. Forsch. 18, 845-850 (1968); B. B. Vargaftig et al., J. Pharm. Pharmacol. 27, 697-699 (1975); and M. Fekete et al., Med Exp. 10, 93-102 (1964)).
Test compounds are administered to the urethane-anaesthetized rat prior to the injection of aconitine. Various antiarrhythmic drugs are capable of delaying the onset of aconitine-induced arrhythmias and this model of arrhythmia seems to be suitable for assaying the antiarrhythmic acitivity.

Test [3] relates to calcium chloride-induced arrhythmias. Briefly: Calcium chloride test (antiarrhythmic). It is filed as in vivo, rat. The following applies: for ED50: iv, read-out: ED50, Calcium chloride, rat.
Source text: as §1
Cardiac arrhythmia frequently occurs when the levels of serum ions are abnormal, particularly when the calcium level is four times higher than the normal concentration. This is the reason why intravenous administraction of high doses of calcium chloride can elicit the development of dysrhythmias in animals.
In the anaesthetized rat the rapid intravenous injection of calcium chloride causes lethal ventricular fibrillation or ventricular extrasystoles. The evaluation of the activity of the test compound aministered prior to the calcium chloride injection is based on the onset of arrhythmia (M. R. Malinow et al., Arch.int. Pharmacodyn. 102, 55-64 (1955), "The pharmacology of experimental ventricular arrhythmias in the rat I. Antihistamic drugs") or return to sinus rhythm after occasional trouble of rhythm (M. Fekete et al., Med. Exp. 10, 93-102 (1964), "On the antiarrhythmic effect of some thymoleptics: amitriptyline, imipramine, trimepropimine and desmethylimipramine").

For the compound `CCCCNCC(O)COc1ccsc1C(=O)CCc1ccccc1.OCl` (centres unmarked) [LG 80-6-00, 1-[3-(2-hydroxy-3-n-butylaminopropoxy)-2-thienyl]-3-phenyl-1-propanone-chlorohydrate], the median effective dose (ED50) – broadly, the midpoint of the dose-response relation – in test [1] (Mus musculus) is 4.16 mg/kg; in test [2], 4.23 mg/kg; in test [3] (Rattus norvegicus), 5.04 mg/kg.

Consider `CCCNCC(O)COc1c(C)csc1C(=O)CCc1ccccc1.OCl` (centres unmarked) [LG 80-6-01, 1-[4-methyl-3-(2-hydroxy-3-n-propylaminopropoxy)-2-thienyl]-3-phenyl-1-propanone-chlorohydrate], for which the median effective dose (ED50) in test [1] (Mus musculus) was found to be 3.57 mg/kg; in test [2], 1.49 mg/kg; in test [3] (Rattus norvegicus) it was 2.59 mg/kg. For the same compound, the “ranking in the aconitine test” value in test [2] (rat, compared by ED50) was “best compound in this method”. Besides, the “protection against arrhythmias induced by calcium chloride” value in test [3] (rat) is given as “best protection against arrhythmias induced by calcium chloride”.

As for `CCCNCC(O)COc1cc(C)sc1C(=O)CCc1ccccc1.OCl` (centres unmarked) [LG 80-6-02, 1-[5-methyl-3-(2-hydroxy-3-n-propylaminopropoxy)-2-thienyl]-3-phenyl-1-propanone-chlorohydrate], the ED50 is 17.6 mg/kg in test [1] (Mus musculus), 22.8 mg/kg in test [2] and 2.87 mg/kg in test [3] (Rattus norvegicus).

On to `CCCNCC(O)COc1ccccc1C(=O)CCc1ccccc1` (centres unmarked) [Propafenon, Propafenone, reference compound], for which the ED50 was found to be 3.45 mg/kg in test [1] (mouse, i.v., 5 minutes before chloroform); 2.1 mg/kg in test [2]; 4.49 mg/kg in test [3] (anaesthetized rat, compound given prior to i.v. calcium chloride).
